# Values of other authors as cited in patent publication US7122627B2, “Lactam inhibitors of Hepatitis C virus NS3 protease” (Bristol-Myers Squibb Company, priority 1999, dated 2006).
# [ ]: non-standard residue; d: D form.
substance,measurement,setting,value
alpha interferon and ribavirin,patients with sustained efficacy,"Hepatitis C virus (HCV); combination therapy, Poynard et al. Lancet 1998",40%
Ac-D[dD]IVPC-OH,effectiveness compared with all L isomer,HCV protease; Llinas-Brunet et al. Bioorg. Med. Chem. Lett. 8 1713-1718 (1998),more effective than its all “L” isomer
alpha interferon,patients in whom treatment is effective,"Hepatitis C virus (HCV); current treatment, monotherapy",15-20%
Ac-Asp-Glu-Dpa-Glu-Cha-Cys-OH,Ki,HCV protease; reported in Biochemistry 37 (1998),< 1 µM
